In ChEMBL document CHEMBL6078624, “Structure-based discovery of a 4,5-Dihydropyrazole-cored PET ligand for imaging of receptor-interacting serine/threonine-protein kinase 1 (RIPK1) in the brain” (Eur J Med Chem, 2024):

Assays:
[1] = Biodistribution in male ICR mouse spleen at 0.74 MBq, iv administered into tail vein pre-treated with GSK'547 followed by compound addition by automatic gamma counter analysis relative to baseline; assay type: ADME, organism-based; details: in vivo
[2] = Biodistribution in male ICR mouse brain at 0.74 MBq, iv administered into tail vein pre-treated with WL8 at 6 mg/kg followed by compound addition by automatic gamma counter analysis; assay type: ADME, organism-based; details: in vivo
[3] = Drug uptake in male Sprague-Dawley rat brain at 12.6 to 18.6 MBq, iv administered into tail vein measured after rapid washout by PET/CT imaging analysis; assay type: ADME, organism-based; details: in vivo, dose 12.6-18.6 MBq
[4] = Drug uptake in male Sprague-Dawley rat brain at 12.6 to 18.6 MBq, iv administered into tail vein measured at 1.5 mins post-injection by PET/CT imaging analysis; assay type: ADME, organism-based; details: in vivo, 0.025 h, dose 12.6-18.6 MBq
[5] = Biodistribution in male ICR mouse brain at 0.74 MBq, iv administered into tail vein pre-treated with GSK'547 by automatic gamma counter analysis; assay type: ADME, organism-based; details: in vivo
[6] = Biodistribution in male ICR mouse blood at 0.74 MBq, iv administered into tail vein pre-treated with GSK'547 followed by compound addition by automatic gamma counter analysis relative to baseline; assay type: ADME, organism-based; details: in vivo
[7] = Biodistribution in male ICR mouse liver at 0.74 MBq, iv administered into tail vein by automatic gamma counter analysis; assay type: ADME, organism-based; details: in vivo
[8] = Biodistribution in male ICR mouse stomach at 0.74 MBq, iv administered into tail vein pre-treated with WL8 followed by compound addition by automatic gamma counter analysis relative to baseline; assay type: ADME, organism-based; details: in vivo
[9] = Biodistribution in male ICR mouse small intestine 0.74 MBq, iv administered into tail vein pre-treated with GSK'547 followed by compound addition by automatic gamma counter analysis relative to baseline; assay type: ADME, organism-based; details: in vivo
[10] = Stability of compound in saline at 37 degreeC incubated for 6 hrs by HPLC analysis; assay type: physicochemical; details: buffer
[11] = Biodistribution in male ICR mouse lung at 0.74 MBq, iv administered into tail vein pre-treated with WL8 followed by compound addition by automatic gamma counter analysis relative to baseline; assay type: ADME, organism-based; details: in vivo
[12] = Biodistribution in male ICR mouse kidneys at 0.74 MBq, iv administered into tail vein measured at 60 mins post-injection by automatic gamma counter analysis; assay type: ADME, organism-based, Kidney; details: in vivo, 1 h
[13] = Biodistribution in male ICR mouse pancreas at 0.74 MBq, iv administered into tail vein by automatic gamma counter analysis; assay type: ADME, organism-based; details: in vivo
[14] = Biodistribution in male ICR mouse bone at 0.74 MBq, iv administered into tail vein pre-treated with GSK'547 followed by compound addition by automatic gamma counter analysis; assay type: ADME, organism-based, Bone element; details: in vivo
[15] = Biodistribution in male ICR mouse small intestine at 0.74 MBq, iv administered into tail vein pre-treated with GSK'547 followed by compound addition by automatic gamma counter analysis; assay type: ADME, organism-based; details: in vivo
[16] = Biodistribution in male ICR mouse bone at 0.74 MBq, iv administered into tail vein pre-treated with GSK'547 followed by compound addition by automatic gamma counter analysis relative to baseline; assay type: ADME, organism-based, Bone element; details: in vivo
[17] = Drug uptake in male Sprague-Dawley rat cortex at 12.6 to 18.6 MBq, iv administered into tail vein by PET/CT imaging analysis; assay type: ADME, organism-based; details: in vivo, dose 12.6-18.6 MBq
[18] = Biodistribution in male ICR mouse brain at 0.74 MBq, iv administered into tail vein pre-treated with GSK'547 followed by compound addition by automatic gamma counter analysis relative to baseline; assay type: ADME, organism-based; details: in vivo
[19] = Biodistribution in male ICR mouse small intestine at 0.74 MBq, iv administered into tail vein measured at 60 mins post-injection by automatic gamma counter analysis; assay type: ADME, organism-based; details: in vivo, 1 h
[20] = Biodistribution in male ICR mouse lungs at 0.74 MBq, iv administered into tail vein by automatic gamma counter analysis; assay type: ADME, organism-based, Lung; details: in vivo
[21] = Biodistribution in male ICR mouse blood at 0.74 MBq, iv administered into tail vein pre-treated with WL8 followed by compound addition by automatic gamma counter analysis relative to baseline; assay type: ADME, organism-based; details: in vivo
[22] = Biodistribution in male ICR mouse muscle tissue at 0.74 MBq, iv administered into tail vein pre-treated with WL8 followed by compound addition by automatic gamma counter analysis relative to baseline; assay type: ADME, organism-based; details: in vivo
[23] = Drug uptake in male rat white matter region at 5 microCi/ml incubated for 30 mins by phosphor imager analysis; assay type: ADME, tissue-based, Brain white matter; details: 0.5 h
[24] = Biodistribution in male ICR mouse lungs at 0.74 MBq, iv administered into tail vein measured at 60 mins post-injection by automatic gamma counter analysis; assay type: ADME, organism-based, Lung; details: in vivo, 1 h
[25] = Biodistribution in male ICR mouse liver at 0.74 MBq, iv administered into tail vein measured at 60 mins post-injection by automatic gamma counter analysis; assay type: ADME, organism-based; details: in vivo, 1 h
[26] = Biodistribution in male ICR mouse small intestine at 0.74 MBq, iv administered into tail vein pre-treated with WL8 followed by compound addition by automatic gamma counter analysis relative to baseline; assay type: ADME, organism-based; details: in vivo
[27] = Biodistribution in male ICR mouse brain at 0.74 MBq, iv administered into tail vein measured at 60 mins post-injection by automatic gamma counter analysis; assay type: ADME, organism-based; details: in vivo, 1 h
[28] = Drug degradation in male mouse plasma assessed as parent compound remaining at 26.6 MBq by radio-HPLC analysis; assay type: ADME, cell-free
[29] = Biodistribution in male ICR mouse blood at 0.74 MBq, iv administered into tail vein pre-treated with WL8 followed by compound addition by automatic gamma counter analysis; assay type: ADME, organism-based; details: in vivo
[30] = Biodistribution in male ICR mouse lung at 0.74 MBq, iv administered into tail vein pre-treated with GSK'547 followed by compound addition by automatic gamma counter analysis relative to baseline; assay type: ADME, organism-based; details: in vivo
[31] = Biodistribution in male ICR mouse heart at 0.74 MBq, iv administered into tail vein measured at 60 mins post-injection by automatic gamma counter analysis; assay type: ADME, organism-based; details: in vivo, 1 h
[32] = Biodistribution in male ICR mouse bone at 0.74 MBq, iv administered into tail vein measured at 10 mins post-injection by automatic gamma counter analysis; assay type: ADME, organism-based, Bone element; details: in vivo
[33] = Biodistribution in male ICR mouse muscle tissue at 0.74 MBq, iv administered into tail vein pre-treated with GSK'547 followed by compound addition by automatic gamma counter analysis relative to baseline; assay type: ADME, organism-based; details: in vivo
[34] = Biodistribution in male ICR mouse blood at 0.74 MBq, iv administered into tail vein measured at 10 mins post-injection by automatic gamma counter analysis; assay type: ADME, organism-based; details: in vivo
[35] = Drug uptake in male Sprague-Dawley rat cerebellum at 12.6 to 18.6 MBq, iv administered into tail vein by PET/CT imaging analysis; assay type: ADME, organism-based; details: in vivo, dose 12.6-18.6 MBq
[36] = Biodistribution in male ICR mouse pancreas at 0.74 MBq, iv administered into tail vein measured at 60 mins post-injection by automatic gamma counter analysis; assay type: ADME, organism-based; details: in vivo, 1 h
[37] = Biodistribution in male ICR mouse stomach at 0.74 MBq, iv administered into tail vein pre-treated with GSK'547 followed by compound addition by automatic gamma counter analysis relative to baseline; assay type: ADME, organism-based; details: in vivo
[38] = Biodistribution in male ICR mouse bone at 0.74 MBq, iv administered into tail vein measured at 60 mins post-injection by automatic gamma counter analysis; assay type: ADME, organism-based, Bone element; details: in vivo, 1 h
[39] = Biodistribution in male ICR mouse brain at 0.74 MBq, iv administered into tail vein pre-treated with WL8 followed by compound addition by automatic gamma counter analysis relative to baseline; assay type: ADME, organism-based; details: in vivo

Cc1ccc(C2CC=NN2C(=O)C2CCN(C(=O)c3cccc([18F])n3)CC2)cc1F (centres undefined)
Drug uptake [1]: Active | Drug uptake [2]: 129% | SUV [3]: 0.12 | SUVmax [4]: 0.81 | Drug uptake [5]: 91% | Drug uptake [6]: Active | Drug uptake [7]: > 6.5 % ID/g | Drug uptake [8]: Active | Drug uptake [9]: Not_active | Stability [10]: Stable | Drug uptake [11]: Active | Drug uptake [12]: < 4 % ID/g | Drug uptake [13]: > 6.5 % ID/g | Drug uptake [14]: > 29% | Drug uptake [15]: > 27% | Drug uptake [16]: Not_active | SUV [17]: Active | Drug uptake [18]: Active | Drug uptake [19]: 20.75 % ID/g | Drug uptake [20]: > 6.5 % ID/g | Drug uptake [21]: Active | Drug uptake [22]: Active | Drug uptake [23]: Active | Drug uptake [24]: < 4 % ID/g | Drug uptake [25]: < 4 % ID/g | Drug uptake [26]: Not_active | Drug uptake [27]: 0.14 % ID/g | Stability [28]: 10.8% | Drug uptake [29]: > 58% | Drug uptake [30]: Active | Drug uptake [31]: < 4 % ID/g | Drug uptake [32]: 3.6 % ID/g | Drug uptake [33]: Active | Drug uptake [34]: 5.32 % ID/g | SUV [35]: Active | Drug uptake [36]: < 4 % ID/g | Drug uptake [37]: Active | Drug uptake [38]: 6.69 % ID/g | Drug uptake [39]: Active
